Earlier results as cited in US20040147522A1, “Compounds having both alpha7 nicotinic agonist activity and 5HT3 antagonist activity for the treatment of CNS diseases” (priority 2002, published 2004).
One block for each molecule: values may come before it.

Assays:
5HT3R = target: T1, 5HT3R (Homo sapiens, UniProt P46098)
T1 sequence (P46098 24-478): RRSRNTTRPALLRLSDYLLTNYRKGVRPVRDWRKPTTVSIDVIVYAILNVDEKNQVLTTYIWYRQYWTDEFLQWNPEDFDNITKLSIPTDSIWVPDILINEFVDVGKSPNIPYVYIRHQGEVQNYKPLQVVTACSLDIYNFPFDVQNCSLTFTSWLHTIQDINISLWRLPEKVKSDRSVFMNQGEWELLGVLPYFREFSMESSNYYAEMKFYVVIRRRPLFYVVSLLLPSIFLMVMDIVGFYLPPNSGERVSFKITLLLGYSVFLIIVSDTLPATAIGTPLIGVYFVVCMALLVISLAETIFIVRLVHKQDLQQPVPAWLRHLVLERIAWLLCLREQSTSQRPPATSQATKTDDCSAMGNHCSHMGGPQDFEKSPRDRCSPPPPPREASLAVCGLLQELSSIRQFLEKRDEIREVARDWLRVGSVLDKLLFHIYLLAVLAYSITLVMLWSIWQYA

α7 nAChR = α7 nAChR (Homo sapiens, UniProt P36544)
α7 nAChR, sequence (P36544 23-502): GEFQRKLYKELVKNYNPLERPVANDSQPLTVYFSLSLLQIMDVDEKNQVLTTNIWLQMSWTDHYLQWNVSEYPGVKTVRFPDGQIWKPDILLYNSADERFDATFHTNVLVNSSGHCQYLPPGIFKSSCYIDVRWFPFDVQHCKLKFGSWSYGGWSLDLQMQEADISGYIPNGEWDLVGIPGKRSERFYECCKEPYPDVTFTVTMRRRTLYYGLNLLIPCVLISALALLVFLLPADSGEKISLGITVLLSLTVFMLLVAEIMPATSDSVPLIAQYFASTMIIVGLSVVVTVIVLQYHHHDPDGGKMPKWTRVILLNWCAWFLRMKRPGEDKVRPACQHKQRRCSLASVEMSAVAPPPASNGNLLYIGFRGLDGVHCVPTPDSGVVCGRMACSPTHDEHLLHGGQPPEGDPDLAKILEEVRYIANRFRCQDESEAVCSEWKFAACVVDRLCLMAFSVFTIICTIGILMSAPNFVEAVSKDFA

activity at the 5HT3R (5HT3R): little activity
Structure (SMILES): COc1ccc(/C=C2\CCCN=C2c2cccnc2)c(OC)c1 [GTS-21]

activity at the α7 nAChR (α7 nAChR): little activity
Structure (SMILES): Cc1nccn1CC1CCc2c(c3ccccc3n2C)C1=O (stereo not drawn) [Ondansetron]

α7 nicotinic agonist activity (α7 nAChR; reported by Macor et al. 2001): α7 nicotinic agonist activity
Structure (SMILES): CN1[C@@H]2CC[C@H]1C[C@@H](OC(=O)c1c[nH]c3ccccc13)C2 [tropesitron]
